Earlier results as cited in PubChem BioAssay AID1259409 (Chemical Carcinogenesis Research Information System (CCRIS), 2018).

Test system: rodent chemically induced tumor inhibition, incidence and multiplicity
Experiment: CCRIS tumor inhibitor studies
Conditions: Route [Inhibitor]: ORAL, Species: RAT, Promoter: NONE USED

## O=[Se](O)O
Carcinogen: 7,12-DIMETHYLBENZ[A]ANTHRACENE, 57-97-6, Dose [Inhibitor]: 5 PPM IN 25% CORN OIL DIET DAILY FOR 4 WK STARTING 2 WK BEFORE CARCINOGEN TREATMENT AND CONTINUING FOR 2 WK POST CARCINO, Strain/Sex: SPRAGUE-DAWLEY/FEMALE, Target Tissue: Type of Lesion: MAMMARY GLAND: ADENOCARCINOMA, Dose [Carcinogen]: 10 MG ONCE AT 50 D OF AGE
  tumour outcome (control, treated, inhibition, significance): 97%, 72%, 26%, p<0.02
Carcinogen: 7,12-DIMETHYLBENZ[A]ANTHRACENE, 57-97-6, Dose [Inhibitor]: 5 PPM IN 25% CORN OIL DIET DAILY FOR 10 WK STARTING 2 WK AFTER CARCINOGEN TREATMENT (STUDY DURATION: 24 WK), Strain/Sex: SPRAGUE-DAWLEY/FEMALE, Target Tissue: Type of Lesion: MAMMARY GLAND: ADENOCARCINOMA, Dose [Carcinogen]: 10 MG ONCE AT 50 D OF AGE
  tumour outcome (control, treated, inhibition, significance): 97%, 86%, 11%, not significant
Carcinogen: 7,12-DIMETHYLBENZ[A]ANTHRACENE, 57-97-6, Dose [Inhibitor]: 5 PPM IN 25% CORN OIL DIET DAILY FOR 12 WK STARTING 12 WK AFTER CARCINOGEN TREATMENT (STUDY DURATION: 24 WK), Strain/Sex: SPRAGUE-DAWLEY/FEMALE, Target Tissue: Type of Lesion: MAMMARY GLAND: ADENOCARCINOMA, Dose [Carcinogen]: 10 MG ONCE AT 50 D OF AGE
  tumour outcome (control, treated, inhibition, significance): 97%, 91%, 6%, not significant
Carcinogen: 7,12-DIMETHYLBENZ[A]ANTHRACENE, 57-97-6, Dose [Inhibitor]: 5 PPM IN 25% CORN OIL DIET DAILY FOR 14 WK STARTING 2 WK BEFORE CARCINOGEN TREATMENT (STUDY DURATION: 26 WK), Strain/Sex: SPRAGUE-DAWLEY/FEMALE, Target Tissue: Type of Lesion: MAMMARY GLAND: ADENOCARCINOMA, Dose [Carcinogen]: 10 MG ONCE AT 50 D OF AGE
  tumour outcome (control, treated, inhibition, significance): 97%, 57%, 41%, p<0.02
Carcinogen: 7,12-DIMETHYLBENZ[A]ANTHRACENE, 57-97-6, Dose [Inhibitor]: 5 PPM IN 25% CORN OIL DIET DAILY FOR 22 WK STARTING 2 WK AFTER CARCINOGEN TREATMENT AND CONTINUING FOR DURATION OF STUDY, Strain/Sex: SPRAGUE-DAWLEY/FEMALE, Target Tissue: Type of Lesion: MAMMARY GLAND: ADENOCARCINOMA, Dose [Carcinogen]: 10 MG ONCE AT 50 D OF AGE
  tumour outcome (control, treated, inhibition, significance): 97%, 69%, 26%, p<0.02
Carcinogen: 7,12-DIMETHYLBENZ[A]ANTHRACENE, 57-97-6, Dose [Inhibitor]: 5 PPM IN 25% CORN OIL DIET DAILY FOR 26 WK STARTING 2 WK BEFORE CARCINOGEN TREATMENT AND CONTINUING FOR DURATION OF STUD, Strain/Sex: SPRAGUE-DAWLEY/FEMALE, Target Tissue: Type of Lesion: MAMMARY GLAND: ADENOCARCINOMA, Dose [Carcinogen]: 10 MG ONCE AT 50 D OF AGE
  tumour outcome (control, treated, inhibition, significance): 97%, 46%, 53%, p<0.02
Carcinogen: AZOXYMETHANE, 25843-45-2, Dose [Inhibitor]: 0.5 PPM IN DIET BEGINNING 1 WK POST CARCINOGEN DOSE FOR DURATION OF STUDY (STUDY DURATION: 39 WK), Strain/Sex: F344/MALE, Target Tissue: Type of Lesion: COLON: ADENOCARCINOMA, Dose [Carcinogen]: 15 MG/KG BW 1/WK FOR 2 WK
  tumour outcome (control, treated, inhibition, significance): 10/27 (37%), 9/27 (33%), 11%, not significant
Carcinogen: AZOXYMETHANE, 25843-45-2, Dose [Inhibitor]: 0.5 PPM IN DIET BEGINNING 1 WK POST CARCINOGEN DOSE FOR DURATION OF STUDY (STUDY DURATION: 39 WK), Strain/Sex: F344/MALE, Target Tissue: Type of Lesion: COLON: ADENOMA, Dose [Carcinogen]: 15 MG/KG BW 1/WK FOR 2 WK
  tumour outcome (control, treated, inhibition, significance): 16/27 (59%), 20/27 (74%), -25%, not significant
Carcinogen: AZOXYMETHANE, 25843-45-2, Dose [Inhibitor]: 0.5 PPM IN DIET BEGINNING 1 WK POST CARCINOGEN DOSE FOR DURATION OF STUDY (STUDY DURATION: 39 WK), Strain/Sex: F344/MALE, Target Tissue: Type of Lesion: DUODENUM: ADENOCARCINOMA, Dose [Carcinogen]: 15 MG/KG BW 1/WK FOR 2 WK
  tumour outcome (control, treated, inhibition, significance): 7/27 (26%), 7/27 (26%), 0%, not significant
Carcinogen: AZOXYMETHANE, 25843-45-2, Dose [Inhibitor]: 0.5 PPM IN DIET BEGINNING 1 WK POST CARCINOGEN DOSE FOR DURATION OF STUDY (STUDY DURATION: 39 WK), Strain/Sex: F344/MALE, Target Tissue: Type of Lesion: DUODENUM: ADENOMA, Dose [Carcinogen]: 15 MG/KG BW 1/WK FOR 2 WK
  tumour outcome (control, treated, inhibition, significance): 3/27 (11%), 4/27 (15%), -36%, not significant
Carcinogen: AZOXYMETHANE, 25843-45-2, Dose [Inhibitor]: 0.5 PPM IN DIET BEGINNING 3 WK PRIOR TO CARCINOGEN DOSE AND CONTINUING FOR 1 WK POST CARCINOGEN DOSE (STUDY DURATION: 39, Strain/Sex: F344/MALE, Target Tissue: Type of Lesion: COLON: ADENOMA, Dose [Carcinogen]: 15 MG/KG BW 1/WK FOR 2 WK
  tumour outcome (control, treated, inhibition, significance): 16/27 (59%), 16/27 (59%), 0%, not significant
Carcinogen: AZOXYMETHANE, 25843-45-2, Dose [Inhibitor]: 0.5 PPM IN DIET BEGINNING 3 WK PRIOR TO CARCINOGEN DOSE AND CONTINUING FOR 1 WK POST CARCINOGEN DOSE (STUDY DURATION: 39, Strain/Sex: F344/MALE, Target Tissue: Type of Lesion: DUODENUM: ADENOCARCINOMA, Dose [Carcinogen]: 15 MG/KG BW 1/WK FOR 2 WK
  tumour outcome (control, treated, inhibition, significance): 7/27 (26%), 7/27 (26%), 0%, not significant
Carcinogen: AZOXYMETHANE, 25843-45-2, Dose [Inhibitor]: 0.5 PPM IN DIET BEGINNING 3 WK PRIOR TO CARCINOGEN DOSE AND CONTINUING FOR 1 WK POST CARCINOGEN DOSE (STUDY DURATION: 39, Strain/Sex: F344/MALE, Target Tissue: Type of Lesion: DUODENUM: ADENOMA, Dose [Carcinogen]: 15 MG/KG BW 1/WK FOR 2 WK
  tumour outcome (control, treated, inhibition, significance): 3/27 (11%), 2/27 (7%), 36%, not calculated
Carcinogen: AZOXYMETHANE, 25843-45-2, Dose [Inhibitor]: 2.5 PPM IN DIET BEGINNING 1 WK POST CARCINOGEN DOSE FOR DURATION OF STUDY (STUDY DURATION: 39 WK), Strain/Sex: F344/MALE, Target Tissue: Type of Lesion: COLON: ADENOCARCINOMA, Dose [Carcinogen]: 15 MG/KG BW 1/WK FOR 2 WK
  tumour outcome (control, treated, inhibition, significance): 10/27 (37%), 1/27 (4%), 89%, p<0.05
Carcinogen: AZOXYMETHANE, 25843-45-2, Dose [Inhibitor]: 2.5 PPM IN DIET BEGINNING 1 WK POST CARCINOGEN DOSE FOR DURATION OF STUDY (STUDY DURATION: 39 WK), Strain/Sex: F344/MALE, Target Tissue: Type of Lesion: COLON: ADENOMA, Dose [Carcinogen]: 15 MG/KG BW 1/WK FOR 2 WK
  tumour outcome (control, treated, inhibition, significance): 16/27 (59%), 12/27 (44%), 25%, not significant
